{"source": "patent US20240156717A1", "about": "“COMPOSITION FOR ENHANCING SKIN WHITENING EFFECT ACCORDING TO AUTOPHAGY ACTIVITY WITH NYPA FRUTICANS EXTRACT AS AN ACTIVE INGREDIENT” (KYUNGPOOK NATIONAL UNIVERSITY INDUSTRY - ACADEMIC …, priority 2022, published 2024)", "type_in_all_cases": "cell-based", "key": {"[1]": {"system": "Mouse melanocytes (Melan-a)", "experiment": "Melanin content analysis in IBMX-treated melanocytes", "conditions": "72 hours, FIG. 2", "protocol": "(§1) Mouse melanocytes (Melan-a) were inoculated into a 24-well plate at 1×10^5 cells/mL and cultured overnight. Thereafter, the medium was replaced with a new medium containing 100 μM IBMX (melanogenesis promoter) and 10 μg/mL and 100 μg/mL of the Nypa fruticans extract of the present disclosure, and reacted for 72 hours, and the existing medium was washed. Thereafter, the cells were washed twice with PBS and dissolved in 1 N NaOH.\nThe melanin content was analyzed at 405 nm with a spectrophotometer, and arbutin was used as a positive control group."}, "[2]": {"system": "melanogenesis-related genes (TYR, TYRP-1, TYRP-2, MITF, MC1R) in mouse melanocytes (Melan-a)", "experiment": "Melanogenesis inhibitory effect (RT-PCR), melanogenesis-related mRNA expression", "conditions": "IBMX treatment alone, FIG. 3", "protocol": "as §1\nIn melanogenesis, tyrosinase (TYR), tyrosinase-related protein-1 (TYRP-1) and tyrosinase-related protein-2 (TYRP-2) were key factors. […] In the experiment, phosphorylated CREB was evaluated as a transcription factor and melanogenesis-related genes such as tyrosinase, TYRP-1, TYRP-2, MITF, and MC1R in mouse melanocytes (Melan-a) to confirm a melanogenesis inhibitory effect.\nTotal RNA (2 μg) was extracted from the mouse melanocytes (Melan-a) using TRIzol (Invitrogen Co., Carlsbad, CA, USA). […] Quantification of bands was calculated using Image Lab™ software version 5.2.1 (Bio-Rad Laboratories, CA, USA)."}, "[3]": {"system": "melanogenesis-related proteins (TYR, TYRP-2, MITF) in mouse melanocytes (Melan-a)", "experiment": "Melanogenesis inhibitory effect (Western blot), melanogenesis-related protein expression", "conditions": "IBMX treatment alone, FIG. 4", "protocol": "as §1\nMouse melanocytes (Melan-a) were lysed with a RIPA buffer (ELPIS Biotech. Inc., Korea) containing protease inhibitor cocktail I (P8340; Sigma-Aldrich Korea) and phosphatase inhibitor cocktail II (P5726; Sigma-Aldrich Korea) and the extracted proteins were quantified using a Bradford protein method. Each protein was separated by 10% SDS-PAGE, and then transferred to a nitrocellulose (NC) membrane (0.45 μm; 1620115; Bio-Rad, Munich, Germany) and blocked with 5% skim milk or BSA in TBST for 1 hour. The membrane was cultured overnight with primary antibodies at 4° C. The membrane was washed four times at 15-minute intervals, and then reacted with anti-mouse or rabbit IgG-HRP as a secondary antibody. The proteins were detected using the ECL Solution System (ChemiDoc™ XRS+; Bio-Rad), and protein bands were quantified using Image Lab™ software (Bio-Rad Laboratories, CA, USA)."}, "[4]": {"system": "Mouse melanocytes (Melan-a)", "experiment": "Melanin content with rapamycin (autophagy inducer) or bafilomycin (autophagy inhibitor)", "conditions": "bafilomycin (autophagy inhibitor) treatment, FIG. 8", "protocol": "as §1, with “hours.” for “hours, and the existing medium was washed.”, “treated” for “washed twice”, “rapamycin (autophagy inducer) or bafilomycin (autophagy inhibitor),” for “PBS”, “the melanin content was evaluated.” for “dissolved in 1 N NaOH.”"}}}
{"smiles": "CC(C)Cn1c(=O)n(C)c(=O)c2[nH]cnc21", "note": "[IBMX]", "values": [{"measurement": "increase of melanin content compared to IBMX-untreated control group", "setting": "[1]; 100 μM IBMX, absorbance 405 nm", "value": "about 1.5 times"}, {"measurement": "melanogenesis-related mRNA expression", "setting": "[2]", "value": "increased"}, {"measurement": "melanogenesis-related protein levels", "setting": "[3]", "value": "increased"}]}
{"smiles": "OC[C@H]1O[C@@H](Oc2ccc(O)cc2)[C@H](O)[C@@H](O)[C@@H]1O", "note": "[arbutin]", "values": [{"measurement": "melanin content reduction effect", "setting": "[1]; IBMX-treated Melan-a, extract 100 μg/mL, arbutin positive control", "value": "melanin content reduction effect"}]}
{"smiles": "CO/C1=C\\C(C)=C\\[C@@H](C)[C@@H](O)[C@@H](C)C/C(C)=C/C=C/[C@H](OC)[C@@H]([C@@H](C)[C@@H](O)[C@H](C)[C@@]2(O)C[C@@H](O)[C@H](C)[C@@H](C(C)C)O2)OC1=O", "note": "[bafilomycin]", "values": [{"measurement": "effect on melanin content", "setting": "[4]", "value": "did not affect"}]}
